# In patent US8362256B2, “Salts of N-[4-(1-cyanocyclopentyl)phenyl]-2-(4-pyridylmethyl)amino-3-pyridinecarboxamide” (Jiangsu Hengrui Medicine Co. Ltd., priority 2008, dated 2013):
# “And” between values parts separate entries of the source, which are not always exact repeats. Equal entries are not always repeated. Where two headings read alike, the source gives them in different places.
# Columns and labels:
# [1] = system: human colon cancer HT-29; experiment: Efficacy on human colon cancer HT-29 transplanted in nude mice
# Protocol: BALB/cA-nude mice, ♀, 5-6 weeks-old, purchased from Shanghai Slaccas experimental animals limited liability company. […] Rearing environment: SPF grade.
# After one week adaption, the experimental animals were subcutaneously inoculated with human colon cancer HT-29 tumor tissues. When the tumors grew to 100-300 mm^3, the animals were randomly divided into several groups. […] Volume of tumors and weight of mice were measured 2-3 times every week, the data of which were recorded. The equation for the calculation of volume of tumors (V) is: V=½×a×b^2 wherein a, b represent length and width, respectively.
# [2] = 75 mg/kg; initial tumor volume 25-100 mm3; 28 days or more; cited from earlier work
# [3] = system: human colon cancer Ls174t; experiment: Efficacy on human colon cancer Ls174t transplanted in nude mice; conditions: for Weight after Removing Tumor, d0 / TV x ± SD, d0: d0 baseline; for RTV x ± SD / T/C / TV x ± SD, dn: dn 14 days; for Weight after Removing Tumor, dn: dn 14 days after first administration
# Protocol: BALB/cA-nude mice, ♀, 5-6 weeks-old, available from Shanghai Slaccas experimental animals limited liability company. […] Rearing environment: SPF grade.
# After one week adaption, the experimental animals were subcutaneously inoculated with human colon cancer Ls174t tumor tissues. When the tumors grew to 100-300 mm^3, the animals were randomly divided into several groups in day 0 (d0). […] The volumes of tumors and the weights of mice were measured 2-3 times every week, the data of which were recorded. The equation for the calculation of volume of tumors (V) is: V=½×a×b^2 wherein a and b represent length and width, respectively.
# [4] = target: c-Src (Homo sapiens, UniProt P12931); experiment: ELISA tyrosine kinase inhibition; format: biochemical; conditions: concentration increased to 10^4 nM
# c-Src, sequence (P12931 whole entry, species assumed): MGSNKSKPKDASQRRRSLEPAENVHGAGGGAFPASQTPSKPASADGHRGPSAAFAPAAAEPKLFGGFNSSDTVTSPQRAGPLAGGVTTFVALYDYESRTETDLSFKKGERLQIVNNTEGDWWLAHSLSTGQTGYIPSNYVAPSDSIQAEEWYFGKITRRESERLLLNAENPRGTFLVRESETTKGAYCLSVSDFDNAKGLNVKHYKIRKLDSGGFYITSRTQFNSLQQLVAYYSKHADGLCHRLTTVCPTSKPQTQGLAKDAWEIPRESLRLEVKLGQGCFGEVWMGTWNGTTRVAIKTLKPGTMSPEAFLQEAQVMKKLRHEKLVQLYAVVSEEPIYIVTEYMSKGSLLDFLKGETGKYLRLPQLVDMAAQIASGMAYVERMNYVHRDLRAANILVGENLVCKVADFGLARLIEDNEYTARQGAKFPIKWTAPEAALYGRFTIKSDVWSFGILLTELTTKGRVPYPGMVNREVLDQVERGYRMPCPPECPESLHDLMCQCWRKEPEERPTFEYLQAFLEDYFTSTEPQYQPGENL
# Protocol: Phosphorylation of substrate was determined with monoclonal antibody of anti-phosphorylation tyrosine (PY99). Goat anti-mouse IgG marked with HRP was then added, and the degree of phosphorylation of substrate was determined with OPD coloration. At the same time, the control group without tyrosine kinase and control wells of corresponding DMSO concentration were set up. 2 M of H2SO4 was added in 50 μl/well to terminate the reaction. Data was read with adjustable wavelength micro plate enzyme-labeling instrument VERSAmax (Sunnyvale, Calif., U.S.A.), followed by visualization reaction, OD490 nm value was then observed.
# Relative inhibition rate of drugs on tyrosine kinase protein was determined.
# [5] = Solubility; format: physicochemical
# [6] = Stability in different conditions, content by HPLC; format: physicochemical; conditions: for content after 6 Months Under Light / content after 6 Months at 60° C. / content after 6 Months at Room Temperature: HPLC, initial purity 99.6%
# [7] = in vivo; conditions: rat, po, 1 mmol/kg
# Excerpt: Male Sprague-Dawley (SD) rats (weight: about 250 g, experimental animal certification of fitness: 0006473) were purchased from Shanghai Slaccas experimental animals limited liability company (certification number: SCXK (Hu) 2003-0003). The relevant qualifications and state of health of the SD rats were checked first, and the eligible ones were placed into the clean grade chambers of rats in Shanghai institute of Materia Medica.
# (§1) I. Analysis Condition of LC/MS/MS
# (§2) Analysis Condition of Liquid Chromatography
# Chromatographic column: Agilent Zorbax SB-C18 column (50 mm×2.1 mm ID);
# (§3) Column temperature: 25° C.;
# Mobile phase: A: H2O—CH3CN (2:98, v/v), B: H2O—CH3CN (10:90, v/v)
# (§4) A: 25%+B: 75%, constant gradient elution;
# (§5) Analysis time: 3 minutes.
# The light circle was switched to 12/12 hour day/night in the clean grade chambers of rats. Humidity and temperature were 40-60% and 20-24° C., respectively. Every 4 rats were raised in a 36×24×19 cm^3 stainless rat cage. The rats took water freely and were fed special rat food regularly once daily. Only after one week adaption, the rats were used to conduct pharmacokinetics studies. 12 Sprague-Dawley rats were divided into 4 groups, 3 for each group.
# The blood samples were collected 0 hour before the administration and 0.083, 0.25, 0.5, 1.0, 2, 4, 6, and 8 hours after the administration. The blood samples were collected at 250˜300 μL at each time point from posterior venous sinus of the eye after respiration anaesthesia with ether (the degree of anaesthesia was highly controlled). The blood was collected into test tubes containing heparin, and then was centrifuged to produce plasma. The obtained plasma was divided into 2 parts (50 μL for each part) and stored at −70° C. until analysis. […] After experiments, euthanasia was performed with CO2 gas.
# Pharmacokinetics parameters of animal experiment of each group were calculated using InnaPhase Kinetica™ software (America).
# [8] = system: colon cancer Ls174t; conditions: cited from earlier work
# [9] = Bioavailability of compound A by oral administration (Example 4); format: in vivo, Sprague-Dawley (SD) rats; conditions: SD rats
# Protocol: as §1, §2, §3, §4, §5
# Only after one week adaption, the rats could be used to conduct pharmacokinetics animal experiment.
# The blood samples were collected into test tubes containing heparin added in advance, and then centrifuged to produce plasma. […] Euthanasia was performed on used rats with CO2 gas.
# [10] = target: VEGFR-2 (Homo sapiens, UniProt P35968); conditions: enzyme level tests in different laboratories; cited from earlier work
# VEGFR-2, sequence (P35968 20-1356, species assumed): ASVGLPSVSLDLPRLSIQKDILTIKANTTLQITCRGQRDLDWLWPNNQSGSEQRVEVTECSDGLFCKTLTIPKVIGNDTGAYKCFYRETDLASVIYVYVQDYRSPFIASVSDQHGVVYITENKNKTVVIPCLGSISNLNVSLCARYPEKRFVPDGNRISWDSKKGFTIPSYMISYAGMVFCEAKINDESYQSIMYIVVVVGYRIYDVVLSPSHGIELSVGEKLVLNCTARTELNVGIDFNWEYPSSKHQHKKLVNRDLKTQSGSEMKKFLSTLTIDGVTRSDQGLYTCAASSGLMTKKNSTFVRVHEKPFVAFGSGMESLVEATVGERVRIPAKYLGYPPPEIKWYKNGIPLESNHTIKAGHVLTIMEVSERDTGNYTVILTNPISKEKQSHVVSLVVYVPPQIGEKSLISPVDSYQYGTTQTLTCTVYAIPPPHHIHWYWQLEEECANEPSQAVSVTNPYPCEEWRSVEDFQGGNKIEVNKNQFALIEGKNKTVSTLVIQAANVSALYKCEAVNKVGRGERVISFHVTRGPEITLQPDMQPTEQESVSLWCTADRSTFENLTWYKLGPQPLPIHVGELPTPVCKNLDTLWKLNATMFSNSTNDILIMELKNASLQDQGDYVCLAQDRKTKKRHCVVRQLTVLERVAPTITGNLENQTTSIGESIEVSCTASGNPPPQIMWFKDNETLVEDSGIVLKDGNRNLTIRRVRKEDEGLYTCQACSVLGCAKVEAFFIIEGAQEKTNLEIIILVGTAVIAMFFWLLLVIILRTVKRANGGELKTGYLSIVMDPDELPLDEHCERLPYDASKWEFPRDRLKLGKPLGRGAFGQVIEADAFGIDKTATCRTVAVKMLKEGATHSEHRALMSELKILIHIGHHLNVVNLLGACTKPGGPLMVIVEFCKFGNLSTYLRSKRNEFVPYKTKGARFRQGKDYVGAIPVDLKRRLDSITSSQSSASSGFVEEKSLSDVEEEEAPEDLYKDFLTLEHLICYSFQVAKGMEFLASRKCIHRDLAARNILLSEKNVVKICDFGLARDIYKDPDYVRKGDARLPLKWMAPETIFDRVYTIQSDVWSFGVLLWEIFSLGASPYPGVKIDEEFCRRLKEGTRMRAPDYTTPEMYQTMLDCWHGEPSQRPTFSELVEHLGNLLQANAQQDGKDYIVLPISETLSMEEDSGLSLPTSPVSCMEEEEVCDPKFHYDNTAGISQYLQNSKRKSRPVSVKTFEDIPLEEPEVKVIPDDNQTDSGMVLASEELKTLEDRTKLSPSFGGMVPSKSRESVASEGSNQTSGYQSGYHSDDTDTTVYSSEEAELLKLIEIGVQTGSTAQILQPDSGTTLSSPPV
# [11] = system: non-small cell lung cancer A549; conditions: cited from earlier work
# [12] = system: kinases Ret, VEGFR-1, PDGFR-β, c-kit, cSRC; conditions: cited from earlier work
# [13] = 200 mg/kg p.o. once daily d0-d20, dn 21 days
# [14] = 50 mg/kg p.o. once daily d0-d13
# [15] = 100 mg/kg p.o. once daily d0-d13
# [16] = 200 mg/kg p.o. once daily d0-d13
# [17] = oral 20 mg/kg, individual rats, 20 mg/kg
smiles,measurement,setting,value
"Clc1ccc(Nc2nnc(Cc3ccncc3)c3ccccc23)cc1 [PTK787, reference compound]","Weight after Removing Tumor, d0","[1]; 200 mg/kg p.o. once daily d0-d20, d0 baseline",15.9 g
same,RTV x ± SD,[1]; [13],4.9 ± 1.36
same,"TV x ± SD, dn",[1]; [13],1185 ± 143
same,"Weight after Removing Tumor, dn","[1]; 200 mg/kg p.o. once daily d0-d20, dn 21 days after first administration",13.9 g
same,"TV x ± SD, d0","[1]; 200 mg/kg p.o., d0 baseline",252 ± 43
same,tolerance,"[1]; mouse, in vivo, po",well tolerated
same,best T/C %,[2],40%
same,"Weight after Removing Tumor, d0",[3]; [14],19.5 g
same,RTV x ± SD,[3]; [14],9.4 ± 5.9
same,T/C,[3]; [14],76.4%
same,"TV x ± SD, dn",[3]; [14],1425 ± 613
same,"Weight after Removing Tumor, dn",[3]; [14],17.6 g
same,"TV x ± SD, d0",[3]; 50 mg/kg p.o.,171 ± 39
same,"Weight after Removing Tumor, d0",[3]; [15],19.3 g
same,RTV x ± SD,[3]; [15],8.8 ± 3.5
same,T/C,[3]; [15],71.5%
same,"TV x ± SD, dn",[3]; [15],1538 ± 402
same,"Weight after Removing Tumor, dn",[3]; [15],17.3 g
same,"TV x ± SD, d0",[3]; 100 mg/kg p.o.,175 ± 43
same,"Weight after Removing Tumor, d0",[3]; [16],18.8 g
same,RTV x ± SD,[3]; [16],7.4 ± 2.0
same,"TV x ± SD, dn",[3]; [16],1076 ± 198
same,"Weight after Removing Tumor, dn",[3]; [16],17.1 g
same,"TV x ± SD, d0",[3]; 200 mg/kg p.o.,150 ± 25
same,efficacy at 400 mg/kg,[3]; 400 mg/kg,did not increase significantly
same,ED50,"[3]; Mus musculus, LS174T, read-out: ED50 on colon cancer Ls174t",459 mg/kg
same,tolerance at 400 mg/kg,"[3]; mouse, in vivo",could be tolerated by mice
same,inhibition on c-Src,[4],no inhibition
Cl.N#CC1(c2ccc(NC(=O)c3cccnc3NCc3ccncc3)cc2)CCCC1 [Hydrochloride of compound A],Solubility in water,[5],very slightly
same,stability (conclusion of stability experiments),[6],most satisfying
same,content after 6 Months Under Light,[6],97.6%
same,content after 6 Months at 60° C.,[6],94.7%
same,content after 6 Months at Room Temperature,[6],98.2%
same,AUC0→8 h Mol dose,[7],17653 ± 3232 ng·h/mL
N#CC1(c2ccc(NC(=O)c3cccnc3NCc3ccncc3)cc2)CCCC1.O=C(O)CCC(=O)O [Succinate of compound A],content after 6 Months Under Light,[6],94.2%
same,content after 6 Months at 60° C.,[6],93.8%
same,content after 6 Months at Room Temperature,[6],96.2%
N#CC1(c2ccc(NC(=O)c3cccnc3NCc3ccncc3)cc2)CCCC1.O=P(O)(O)O [Phosphate of compound A],Solubility in water,[5],Insoluble
same,content after 6 Months Under Light,[6],97.1%
same,content after 6 Months at 60° C.,[6],94.2%
same,content after 6 Months at Room Temperature,[6],97.3%
same,AUC0→8 h Mol dose,[7],9074 ± 6292 ng·h/mL
"N#CC1(c2ccc(NC(=O)c3cccnc3NCc3ccncc3)cc2)CCCC1 [Compound A, N-[4-(1-cyanocyclopentyl)phenyl]-2-(4-pyridylmethyl)amino-3-pyridine carboxamide]",Solubility in water,[5],Insoluble
same,content after 6 Months Under Light,[6],95.2%
same,content after 6 Months at 60° C.,[6],92.2%
same,content after 6 Months at Room Temperature,[6],95.7%
same,efficacy in combination with oxaliplatin,[8]; combination with oxaliplatin,improved
same,toxicity in combination with oxaliplatin,"[8]; mouse, in vivo",not increased
same,efficacy on colon cancer Ls174t transplanted in nude mice,"[8]; used alone, compared with PTK787",distinctly better than PTK787
same,"CL, Mean ± SD","[9]; oral 20 mg/kg, 3 rats",1520 ± 393 mL/min/kg
same,"Kel, Mean ± SD","[9]; oral 20 mg/kg, 3 rats",0.426 ± 0.169 h⁻¹
same,"Vd, Mean ± SD","[9]; oral 20 mg/kg, 3 rats",300 ± 69.4 L/kg
same,AUC0→8h,[9]; [17],295 ng·h/mL and 211 ng·h/mL
same,CL,[9]; [17],1920 mL/min/kg and 1120 mL/min/kg and 1540 mL/min/kg
same,Cmax,[9]; [17],68.9 ng/mL and 79.2 ng/mL
same,Kel,[9]; [17],0.325 h⁻¹ and 0.622 h⁻¹ and 0.332 h⁻¹
same,MRT,[9]; [17],3.38 h and 3.32 h
same,T1/2,[9]; [17],1.12 h and 2.09 h
same,Tmax,[9]; [17],1 h
same,Vd,[9]; [17],366 L/kg and 228 L/kg and 308 L/kg
same,AUC(0-t),"[9]; male, Sprague-Dawley, rat, plasma, po, 20 mg/kg, 3 rats, read-out: AUC0→8h, Mean ± SD",226 ± 63 ng·h/mL
same,Cmax,"[9]; male, Sprague-Dawley, rat, plasma, po, 20 mg/kg, 3 rats, read-out: Cmax, Mean ± SD",69.6 ± 9.2 ng/mL
same,MRT,"[9]; male, Sprague-Dawley, rat, plasma, po, 20 mg/kg, 3 rats, read-out: MRT, Mean ± SD",3.3 ± 0.09 h
same,half-life,"[9]; male, Sprague-Dawley, rat, plasma, po, 20 mg/kg, 3 rats, read-out: T1/2, Mean ± SD (converted)",1.78 ± 0.57 h
same,Tmax,"[9]; male, Sprague-Dawley, rat, plasma, po, 20 mg/kg, 3 rats, read-out: Tmax, Mean ± SD",1.33 ± 0.29 h
same,AUC(0-t),"[9]; male, Sprague-Dawley, rat, plasma, po, 20 mg/kg, individual rats, read-out: AUC0→8h",172 ng·h/mL
same,Cmax,"[9]; male, Sprague-Dawley, rat, plasma, po, 20 mg/kg, individual rats, read-out: Cmax",60.8 ng/mL
same,MRT,"[9]; male, Sprague-Dawley, rat, plasma, po, 20 mg/kg, individual rats, read-out: MRT",3.2 h
same,half-life,"[9]; male, Sprague-Dawley, rat, plasma, po, 20 mg/kg, individual rats, read-out: T1/2 (converted)",2.13 h
same,Tmax,"[9]; male, Sprague-Dawley, rat, plasma, po, 20 mg/kg, individual rats, read-out: Tmax",1.5 h
same,IC50,[10],~1 nM
same,efficacy on non-small cell lung cancer A549 transplanted in nude mice,[11]; compared with PTK787,distinctly better than PTK787
same,maximum efficacy on A549,[11]; compared with ZD6474 at a customary dose,equivalent to ZD6474
same,"inhibition activity on kinases Ret, VEGFR-1, PDGFR-β, c-kit, cSRC",[12],certain selective inhibition activity
N#CC1(c2ccc(NC(=O)c3cccnc3NCc3ccncc3)cc2)CCCC1.O=C(O)/C=C\C(=O)O [Maleate of compound A],Solubility in water,[5],Insoluble
same,content after 6 Months Under Light,[6],94.2%
same,content after 6 Months at 60° C.,[6],93.5%
same,content after 6 Months at Room Temperature,[6],96.4%
same,AUC0→8 h Mol dose,[7],11697 ± 8807 ng·h/mL
